The values below come from publication PMC8320704 (Journal of medicinal chemistry, 2015).

By IC50 is commonly meant the concentration that gives 50% inhibition.

For data set [1], the target named is T1, HIV-1 IN (ST) (Human immunodeficiency virus type 1 group M subtype B, UniProt P04585). The experiment in a line: HIV-1 IN gel-based assay, strand transfer. It is filed as biochemical.
The target of data set [2] is T2, HIV-1 IN (3′-P) (Human immunodeficiency virus type 1 group M subtype B, UniProt P04585). The experiment in a line: HIV-1 IN gel-based assay, 3′-processing. It is filed as biochemical.
For another data set, the target named is HIV-1 RT RNase H (Human immunodeficiency virus type 1 group M subtype B, UniProt P04585). The experiment in a line: HIV-1 RT RNase H inhibition. It is filed as biochemical.
In a further data set the test system is HIV-1(IIIB). As to conditions: Table 2.
Data set [3] has as its target T1, HIV-1 IN (ST). As to conditions: read-out: ST IC50, previously reported compound; cited from earlier work.
The target of data set [4] is T2, HIV-1 IN (3′-P). As to conditions: read-out: 3′-P IC50, previously reported compounds; cited from earlier work.

Molecules are shown by their SMILES. Values joined by “and” are separate entries in the source; they are usually repeats but may differ in a detail not shown here. Identical values can stand only once. Like-named read-outs stand apart in the source and are kept apart here.

Regarding `CCOC(=O)/C(O)=C/C(=O)c1cn(Cc2ccc(Cl)cc2)c2ccccc2c1=O` [10f, 4-[1-(4-Chlorophenyl)methyl-4(1H)-quinolinon-3-yl]-2-hydroxy-4-oxo-2-butenoic Acid Ethyl Ester], the IC50 against HIV-1 IN (ST) [1] and at HIV-1 IN (3′-P) [2] was over 37 µM in each case.
Regarding `CCOC(=O)/C(O)=C/C(=O)c1cn(Cc2ccc(OC)cc2)c2ccccc2c1=O` [10h, 4-[1-(4-Methoxyphenyl)methyl-4(1H)-quinolinon-3-yl]-2-hydroxy-4-oxo-2-butenoic Acid Ethyl Ester], the IC50 at HIV-1 IN (ST) [1] and at HIV-1 IN (3′-P) [2] was over 37 µM in each case.
For `CCOC(=O)/C(O)=C/C(=O)c1cn(Cc2ccc([N+](=O)[O-])cc2)c2ccccc2c1=O` [10i, 4-[1-(4-Nitrophenyl)methyl-4(1H)-quinolinon-3-yl]-2-hydroxy-4-oxo-2-butenoic Acid Ethyl Ester], the IC50 on HIV-1 IN (ST) [1] and at HIV-1 IN (3′-P) [2] was over 37 µM throughout.
On to `CCOC(=O)/C(O)=C/C(=O)c1cn(Cc2ccc(Cl)cc2Cl)c2ccccc2c1=O` [10o, 4-[1-(2,4-Dichlorophenyl)methyl-4(1H)-quinolinon-3-yl]-2-hydroxy-4-oxo-2-butenoic Acid Ethyl Ester], for which the IC50 is over 111 µM on HIV-1 IN (ST) [1] and over 50 µM against HIV-1 RT RNase H (RNase H IC50, Table 1).
For `CCOC(=O)/C(O)=C/C(=O)c1cn(Cc2ccc(C)cc2C)c2ccccc2c1=O` [10q, 4-[1-(2,4-Dimethylphenyl)methyl-4(1H)-quinolinon-3-yl]-2-hydroxy-4-oxo-2-butenoic Acid Ethyl Ester], in that order: over 111 µM and over 50 µM.
As for `O=C(O)/C(O)=C/C(=O)c1cn(Cc2ccc(O)cc2)c2ccccc2c1=O` [11g, 4-[1-(4-Hydroxyphenyl)methyl-4(1H)-quinolinon-3-yl]-2-hydroxy-4-oxo-2-butenoic Acid], the IC50 at HIV-1 RT RNase H (RNase H IC50, text) was about 10 µM; against HIV-1 IN (3′-P) [2], over 37 µM.
Consider `O=C(O)/C(O)=C/C(=O)c1cn(CCCCc2ccccc2)c2ccccc2c1=O` [11x, 2-Hydroxy-4-oxo-4-(4-oxo-1-(4-phenylbutyl)-1,4-dihydroquinolin-3-yl)but-2-enoic Acid], for which the IC50 was under 0.45 µM on HIV-1 IN (ST) [1] and over 333 µM on HIV-1 IN (3′-P) [2].
In turn, `O=C(O)/C(O)=C/C(=O)c1cn(Cc2ccc3ccccc3c2)c2ccccc2c1=O` [11y, 2-Hydroxy-4-(1-(naphthalen-2-ylmethyl)-4-oxo-1,4-dihydroquinolin-3-yl)-4-oxobut-2-enoic Acid] came in with a concentration for half-maximal inhibition (IC50) against HIV-1 IN (ST) [1] of under 0.45 µM. Besides, the “SI = CC50/EC50” value with HIV-1(IIIB) was over 10.4.
As to `O=C(O)/C(O)=C/C(=O)c1cn(Cc2ccc(F)cc2)c2cc(Cl)c(Cl)cc2c1=O` [compound 8], the IC50 on HIV-1 IN (ST) [3] was 0.033 µM and 0.04 µM; against HIV-1 RT RNase H (RNase H IC50, text), 42 µM; on HIV-1 IN (3′-P) [4] it was over 50 µM.
